Structures are written as SMILES.

The experiment has as its system STAT5 Y694 phosphorylation. As to the kind of experiment: HTRF experiment: STAT5 Y694 phosphorylation in Hela cells stimulated with human interferon beta. Format: cell-based. The following applies: 2 hours pretreatment, 10 nM human interferon beta 30 minutes. For orientation: Time-resolved FRET reads energy transfer from a long-lived donor to a nearby acceptor.

For the compound `O=C(Cc1ccc(C(F)(F)F)cc1)N1CCC(n2c(=O)[nH]c3ccccc32)CC1` [Example X8, 1-(1-(2-(4-(trifluoromethyl)phenyl)acetyl)piperidin-4-yl)-1H-benzo[d]imidazole-2(3H)-one], the “Example of Effect 3: Inhibiting Ratio@10 μM (HTRF Experiment)” value is 22.60%.

For the origin of these results see US20230099441A1, “HETEROCYCLIC COMPOUND, APPLICATION THEREOF, AND COMPOSITION CONTAINING SAME” (GenEros Biopharma Ltd., priority 2019, published 2023).
